# Results published in article PMC5927461, “Activation of host transient receptor potential (TRP) channels by praziquantel stereoisomers” (PLoS Neglected Tropical Diseases, 2018).
# Columns and labels:
# TRPV1 = TRPV1 (Homo sapiens, UniProt Q8NER1); experiment: Single cell confocal Ca2+ imaging (fluo-4) in transfected HEK293 cells; assay type: cell-based; set-up: host or cells: HEK293 (ATCC CRL-1573.3), transient
# Text: (§1) Human TRPM8 cDNA was a VersaClone from R&D Systems (RDC0188). Plasmids encoding human TRPA1 and human TRPV1 cDNA were purchased from DNASU plasmid repository (HsCD00080227 and HsCD00081472, respectively). The TRP channel coding sequences were subcloned into pCS2+ to introduce a COOH-term myc tag using the InFusion HD method (Clontech), HindIII/XhoI restriction enzymes (NEB) and the following primers: TRPM8 F–TGGGGACGTCGGAGC-aagctt-[…]; TRPM8 R–AAATCGATGGGATGC-ctcgag-[…]; TRPA1 F-GGACGTCGGAGC-aagctt- atgaagcgcagcctgagg; TRPA1 R-TCGATGGGATGC-ctcgag-[…]; TRPV1 F–GGACGTCGGAGC-aagctt-[…]; TRPV1 R-TCGATGGGATGC-ctcgag-cttctccccggaagcgg (where upper case specifies vector-specific sequences, italics indicate restriction sites, and lower case indicates TRP channel specific sequences). Primers are listed in a 5’ to 3’ orientation.
# (§2) HEK293 cells (ATCC CRL-1573.3) were cultured in DMEM supplemented with 10% fetal bovine serum (FBS), penicillin (100 units/ml), streptomycin (100 μg/ml), and L-glutamine (290 μg/ml). Cells were transiently transfected (Lipofectamine LTX, Thermo Fisher) at a density of 2x10^6 cells per T-25 cell-culture flask with TRP channel cDNA. For Ca^2+ imaging assays, HEK293 cells were seeded onto 8-chambered coverglass slides (Thermo Fisher, 115411PK), at a density of 1x10^4 cells one day prior to imaging. Cells were washed twice with HBSS, and incubated with fluo-4-AM (4μM), pluronic F127 (0.4%) and probenecid (2.5mM) for 25 minutes at room temperature. Cells were then washed twice with HBSS, and left at room temperature (30 minutes) for de-esterification. Dishes were mounted on an Olympus IX81 microscope and fluorescence changes (λex = 488nM, λem = 513±15nm bandpass filter) monitored using a Yogokawa spinning disk confocal (CSU-X-M1N) and an Andor iXon Ultra 888 EMCCD camera.
# hTRPM8 = hTRPM8 (Homo sapiens, UniProt Q7Z2W7); experiment: as above; assay type: cell-based; set-up: host or cells: HEK293 (ATCC CRL-1573.3), transient; settings: for cytoplasmic Ca2+ signal in TRPM8 expressing cells: menthol 300μM, ±PZQ 100μM, (R)-PZQ or (S)-PZQ 50μM
# Text: as §1, §2
# [1] = system: mouse mesenteric arteries; experiment: Wire myography, mesenteric artery strips precontracted with high K+ (KPSS); settings: for relaxation of KPSS-contracted vessel strips by TRPM8 agonists: wild type, menthol 300μM, icilin 50 μM, WS-12 50μM
# [2] = system: untransfected HEK293 cells; experiment: Confocal Ca2+ imaging in untransfected HEK293 cells (control); assay type: cell-based, human; settings: menthol 300μM, ±PZQ 100μM, ACh 100μM, capsaicin 1μM, AITC 100μM
# Procedure: as §2
# [3] = system: mesenteric vessels isolated from a TRPM8 knockout mouse; experiment: Wire myography, KPSS-contracted mesenteric vessels from TRPM8 knockout mice; settings: TRPM8 KO; menthol 300μM, icilin 50μM, WS-12 50μM
# hTRPA1 [4] = target: T1, hTRPA1 (Homo sapiens, UniProt O75762); experiment: Single cell confocal Ca2+ imaging (fluo-4) in transfected HEK293 cells; assay type: cell-based; set-up: host or cells: HEK293 (ATCC CRL-1573.3), transient; settings: for Ca2+ response in hTRPA1 expressing cells: 100μM
# Text: as §1, §2
# hTRPA1 [5] = target: T1, hTRPA1; experiment: TRP channel panel primary screen (FLIPR Calcium 5, stable HEK line); assay type: cell-based; settings: 0.3-300μM; effects over the micromolar range
# Procedure: (§3) ±PZQ, (R)-PZQ and (S)-PZQ were screened against a panel of 17 human TRP channels (SB Drug Discovery, Glasgow). For all hTRPs, except for TRPM5, individual channel constructs were stably expressed in HEK cell lines. TRMP5 was expressed in a stable CHO cell line. In preparation for the assays, cells were trypsinized, counted and seeded (50,000 cells/well) in black, clear-bottomed 96 well plates and incubated overnight. The following day, cells were loaded with a fluorescent indicator (FLIPR Calcium 5 Assay kit for TRPA1, TRPV1, TRPV2, TRPV3, TRPV4, TRPV5, TRPC1, TRPM2, TRPM3 and TRPM8, or a membrane potential dye (FLIPR Membrane Potential Red Assay Kit for TRPC3, TRPC4, TRPC5, TRPC6, TRPC7, TRPM4 and TRPM5) prepared according to the manufacturer’s instructions in HEPES buffered Hank’s balanced salt solution (HBSS). Dye solution (10μl) was added to appropriate wells and incubated at 37°C for 1 hour. All assays were performed at room temperature. Compounds were tested at 0.3, 1, 3, 10, 30, 100μM and 300μM in triplicate in both agonist and antagonist mode to determine EC50 and IC50 values, which were compared with reference compounds. Compounds were screened at a final DMSO concentration of 0.5%. Plates were screened using a Flexstation (Molecular Devices, FX01138), monitoring fluorescence values every ~1.52 seconds. For ‘agonist mode’ testing, 10μl of the appropriate test compound, or standard agonist, was added after 20 seconds and fluorescence monitored for 2 minutes at λex = 485nm, λem = 525nm for Ca^2+ imaging and λex = 530nm, λem = 565nm for membrane potential measurements. For ‘antagonist mode’ testing, test compounds and standard inhibitors were added to appropriate wells and incubated for 10 minutes at room temperature prior to addition of standard agonist compound.
# hTRPC3 = target: T2, hTRPC3 (Homo sapiens, UniProt Q13507); experiment: TRP channel panel primary screen (membrane potential dye, stable HEK line); assay type: cell-based; settings: 0.3-300μM; effects over the micromolar range
# T2 sequence (Q13507 1-921): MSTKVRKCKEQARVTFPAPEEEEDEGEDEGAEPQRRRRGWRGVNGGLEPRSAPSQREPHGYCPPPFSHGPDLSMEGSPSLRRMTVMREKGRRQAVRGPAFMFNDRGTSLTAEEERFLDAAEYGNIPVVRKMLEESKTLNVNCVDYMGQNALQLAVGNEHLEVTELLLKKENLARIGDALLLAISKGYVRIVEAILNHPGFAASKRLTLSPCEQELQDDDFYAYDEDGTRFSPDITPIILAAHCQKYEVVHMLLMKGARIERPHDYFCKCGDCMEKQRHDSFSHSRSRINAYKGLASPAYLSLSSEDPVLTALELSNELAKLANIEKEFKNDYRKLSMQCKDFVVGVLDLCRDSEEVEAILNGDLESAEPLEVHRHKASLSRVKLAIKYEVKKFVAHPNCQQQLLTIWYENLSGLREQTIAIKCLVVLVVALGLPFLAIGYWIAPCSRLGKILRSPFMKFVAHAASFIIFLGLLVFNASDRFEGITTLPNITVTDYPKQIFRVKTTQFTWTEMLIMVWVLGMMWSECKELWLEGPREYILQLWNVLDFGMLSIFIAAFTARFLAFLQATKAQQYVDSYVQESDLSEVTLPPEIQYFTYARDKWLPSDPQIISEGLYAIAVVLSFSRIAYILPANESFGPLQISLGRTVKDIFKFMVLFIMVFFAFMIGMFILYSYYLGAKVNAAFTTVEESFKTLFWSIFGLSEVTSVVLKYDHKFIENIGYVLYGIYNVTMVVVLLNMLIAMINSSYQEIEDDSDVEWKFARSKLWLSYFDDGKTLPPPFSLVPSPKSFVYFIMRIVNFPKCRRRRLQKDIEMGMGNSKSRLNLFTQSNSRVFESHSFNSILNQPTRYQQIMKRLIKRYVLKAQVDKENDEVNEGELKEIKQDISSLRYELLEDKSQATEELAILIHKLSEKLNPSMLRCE
# Procedure: as §3
# hTRPC7 = target: T3, hTRPC7 (Homo sapiens, UniProt Q9HCX4); experiment: as above; assay type: cell-based; settings: 0.3-300μM; effects over the micromolar range
# T3 sequence (Q9HCX4 1-862): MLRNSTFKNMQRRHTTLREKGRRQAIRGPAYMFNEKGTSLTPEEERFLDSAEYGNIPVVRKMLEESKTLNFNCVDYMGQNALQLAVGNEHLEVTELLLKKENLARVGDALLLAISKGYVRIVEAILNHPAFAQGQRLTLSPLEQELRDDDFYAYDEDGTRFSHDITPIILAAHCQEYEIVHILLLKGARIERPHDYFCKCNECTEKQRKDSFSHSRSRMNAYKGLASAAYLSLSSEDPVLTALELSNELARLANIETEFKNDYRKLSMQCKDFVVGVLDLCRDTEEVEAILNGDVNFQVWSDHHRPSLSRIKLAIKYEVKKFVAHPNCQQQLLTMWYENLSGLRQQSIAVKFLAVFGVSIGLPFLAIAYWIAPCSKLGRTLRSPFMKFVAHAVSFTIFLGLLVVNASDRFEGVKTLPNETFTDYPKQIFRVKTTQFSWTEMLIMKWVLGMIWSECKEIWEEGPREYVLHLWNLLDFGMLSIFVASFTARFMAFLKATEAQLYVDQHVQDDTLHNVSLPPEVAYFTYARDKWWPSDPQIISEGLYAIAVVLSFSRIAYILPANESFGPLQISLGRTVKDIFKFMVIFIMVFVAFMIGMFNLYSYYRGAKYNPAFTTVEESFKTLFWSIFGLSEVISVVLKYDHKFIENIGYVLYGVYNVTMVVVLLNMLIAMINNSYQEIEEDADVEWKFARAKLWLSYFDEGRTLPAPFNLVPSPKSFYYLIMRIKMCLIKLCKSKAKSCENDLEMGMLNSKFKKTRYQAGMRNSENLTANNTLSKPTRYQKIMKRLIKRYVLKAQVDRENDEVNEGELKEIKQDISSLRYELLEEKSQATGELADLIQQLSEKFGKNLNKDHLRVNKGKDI
# Procedure: as §3
# T1 sequence (O75762 whole entry): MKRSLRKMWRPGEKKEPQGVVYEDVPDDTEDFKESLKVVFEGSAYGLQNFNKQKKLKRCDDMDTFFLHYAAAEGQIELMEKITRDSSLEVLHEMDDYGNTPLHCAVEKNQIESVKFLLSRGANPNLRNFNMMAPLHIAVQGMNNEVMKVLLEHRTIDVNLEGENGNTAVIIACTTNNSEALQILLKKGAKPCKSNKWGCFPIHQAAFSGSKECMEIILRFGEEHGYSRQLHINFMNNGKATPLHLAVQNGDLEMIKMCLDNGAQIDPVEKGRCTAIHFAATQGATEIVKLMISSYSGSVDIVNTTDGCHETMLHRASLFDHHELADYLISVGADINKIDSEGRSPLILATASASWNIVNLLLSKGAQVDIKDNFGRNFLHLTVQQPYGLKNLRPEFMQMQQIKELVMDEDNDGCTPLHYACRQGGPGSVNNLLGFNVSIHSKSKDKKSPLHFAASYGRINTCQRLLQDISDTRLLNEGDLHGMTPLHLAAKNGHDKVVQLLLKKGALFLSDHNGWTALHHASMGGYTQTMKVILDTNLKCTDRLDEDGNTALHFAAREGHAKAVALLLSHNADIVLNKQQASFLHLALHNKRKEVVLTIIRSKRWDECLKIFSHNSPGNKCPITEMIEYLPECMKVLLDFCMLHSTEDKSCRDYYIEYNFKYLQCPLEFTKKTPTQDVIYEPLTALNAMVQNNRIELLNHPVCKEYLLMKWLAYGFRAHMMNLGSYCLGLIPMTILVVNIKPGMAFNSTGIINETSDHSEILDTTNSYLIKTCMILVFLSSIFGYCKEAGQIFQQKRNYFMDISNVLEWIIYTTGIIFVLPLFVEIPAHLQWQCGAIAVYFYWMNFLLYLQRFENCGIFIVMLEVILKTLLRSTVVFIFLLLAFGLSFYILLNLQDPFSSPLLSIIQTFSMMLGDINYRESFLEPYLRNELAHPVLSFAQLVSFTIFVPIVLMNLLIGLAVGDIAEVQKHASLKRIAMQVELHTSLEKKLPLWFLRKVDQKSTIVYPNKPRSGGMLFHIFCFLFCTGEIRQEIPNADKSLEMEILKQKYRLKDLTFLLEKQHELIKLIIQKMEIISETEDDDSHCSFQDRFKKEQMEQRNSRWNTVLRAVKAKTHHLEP
# hTRPM8, sequence (Q7Z2W7 whole entry): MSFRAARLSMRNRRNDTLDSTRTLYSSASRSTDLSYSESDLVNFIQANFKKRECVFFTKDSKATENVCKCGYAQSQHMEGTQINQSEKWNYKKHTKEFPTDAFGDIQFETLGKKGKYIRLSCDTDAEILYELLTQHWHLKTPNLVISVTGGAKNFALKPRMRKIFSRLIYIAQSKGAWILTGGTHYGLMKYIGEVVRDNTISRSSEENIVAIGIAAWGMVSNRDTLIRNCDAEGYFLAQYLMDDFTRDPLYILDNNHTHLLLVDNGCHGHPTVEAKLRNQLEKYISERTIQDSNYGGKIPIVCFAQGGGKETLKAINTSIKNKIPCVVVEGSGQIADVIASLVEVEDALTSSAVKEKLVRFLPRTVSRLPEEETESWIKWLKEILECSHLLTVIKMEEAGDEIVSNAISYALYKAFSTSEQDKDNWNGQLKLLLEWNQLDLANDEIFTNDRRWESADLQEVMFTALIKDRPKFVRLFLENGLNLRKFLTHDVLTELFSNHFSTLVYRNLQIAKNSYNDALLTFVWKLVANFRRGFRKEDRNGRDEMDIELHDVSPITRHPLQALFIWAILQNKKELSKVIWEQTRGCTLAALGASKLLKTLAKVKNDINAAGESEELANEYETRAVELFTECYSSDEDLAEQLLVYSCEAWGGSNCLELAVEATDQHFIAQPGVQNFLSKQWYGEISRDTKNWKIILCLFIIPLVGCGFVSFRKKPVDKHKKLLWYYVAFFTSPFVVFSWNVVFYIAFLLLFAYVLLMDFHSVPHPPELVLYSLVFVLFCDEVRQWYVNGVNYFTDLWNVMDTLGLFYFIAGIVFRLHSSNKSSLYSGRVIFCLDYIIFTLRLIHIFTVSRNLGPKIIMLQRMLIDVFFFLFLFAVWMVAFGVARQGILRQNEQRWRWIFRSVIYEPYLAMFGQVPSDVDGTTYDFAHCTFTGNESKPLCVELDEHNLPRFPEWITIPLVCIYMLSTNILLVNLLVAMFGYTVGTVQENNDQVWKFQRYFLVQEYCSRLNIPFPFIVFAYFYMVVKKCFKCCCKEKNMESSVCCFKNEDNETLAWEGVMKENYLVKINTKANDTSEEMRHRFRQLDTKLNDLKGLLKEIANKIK
# TRPV1, sequence (Q8NER1 whole entry, the tested form may be a part): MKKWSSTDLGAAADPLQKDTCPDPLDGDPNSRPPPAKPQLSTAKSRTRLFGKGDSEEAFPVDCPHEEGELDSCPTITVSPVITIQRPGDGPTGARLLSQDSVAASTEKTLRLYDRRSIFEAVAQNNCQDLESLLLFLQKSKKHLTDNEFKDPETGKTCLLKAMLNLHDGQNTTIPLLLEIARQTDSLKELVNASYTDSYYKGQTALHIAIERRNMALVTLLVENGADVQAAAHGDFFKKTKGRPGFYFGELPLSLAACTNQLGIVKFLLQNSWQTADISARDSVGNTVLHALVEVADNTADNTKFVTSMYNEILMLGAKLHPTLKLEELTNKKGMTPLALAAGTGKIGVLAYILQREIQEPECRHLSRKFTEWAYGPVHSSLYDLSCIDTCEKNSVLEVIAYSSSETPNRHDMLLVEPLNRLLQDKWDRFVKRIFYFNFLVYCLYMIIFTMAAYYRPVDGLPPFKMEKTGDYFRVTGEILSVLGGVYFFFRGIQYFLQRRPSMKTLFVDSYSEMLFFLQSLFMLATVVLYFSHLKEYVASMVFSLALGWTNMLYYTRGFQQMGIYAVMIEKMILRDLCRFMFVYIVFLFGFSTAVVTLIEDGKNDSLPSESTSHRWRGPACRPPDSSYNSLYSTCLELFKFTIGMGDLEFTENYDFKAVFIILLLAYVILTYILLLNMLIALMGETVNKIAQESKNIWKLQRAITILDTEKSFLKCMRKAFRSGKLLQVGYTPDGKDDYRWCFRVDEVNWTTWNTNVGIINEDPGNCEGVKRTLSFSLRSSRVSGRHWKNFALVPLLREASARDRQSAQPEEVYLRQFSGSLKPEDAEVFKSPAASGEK
smiles,measurement,setting,value
Oc1cc2c(cc1O)CN(C(=S)NCCc1ccc(Cl)cc1)CCC2 [capsazepine],block of capsaicin-evoked Ca2+ signals,TRPV1; capsazepine 10μM,blocked
CC1CCC(C(C)C)C(O)C1 (stereo not drawn) [menthol],menthol-evoked Ca2+ signals in Ca2+-free media,"hTRPM8; 300μM, Ca2+-free media",not observed
same,cytoplasmic Ca2+ signal in TRPM8 expressing cells,hTRPM8,rapidly elevated cytoplasmic Ca^2+
same,relaxation of KPSS-contracted vessel strips by TRPM8 agonists,[1],completely relaxed
same,Ca2+ response in untransfected HEK293 cells,[2],neither ±PZQ or menthol elevated cytoplasmic Ca^2+ levels
same,vasorelaxant effect in TRPM8 KO background,[3],persisted
Cc1cccc(COc2ccccc2C(=O)N(CCCN)Cc2cccs2)c1 [AMTB],block of Ca2+ transients evoked by (S)-PZQ or menthol,hTRPM8; AMTB 10μM added 30min before agonists,blocked
"CC(=O)OCC[N+](C)(C)C [ACh, acetylcholine]",Ca2+ response in untransfected HEK293 cells,[2],caused Ca^2+ transients
O=C1NC(c2cccc([N+](=O)[O-])c2)=CCN1c1ccccc1O [icilin],relaxation of KPSS-contracted vessel strips by TRPM8 agonists,[1],completely relaxed
same,vasorelaxant effect in TRPM8 KO background,[3],persisted
O=C(C1CCCCC1)N1CC(=O)N2CCc3ccccc3[C@@H]2C1 [(R)-PZQ],Ca2+ response in hTRPA1 expressing cells,hTRPA1 [4],activation of hTRPA1
same,cytoplasmic Ca2+ signal in TRPM8 expressing cells,hTRPM8,without effect
same,activity at hTRPA1 in primary screen,hTRPA1 [5],activated
same,change in tension of KPSS-precontracted vessels,"[1]; 50μM, bath application during KPSS-evoked contraction","initial, small contraction"
same,activity at hTRPC3 in primary screen,hTRPC3,activated
same,activity at hTRPC7 in primary screen,hTRPC7,activated
Cn1cnc2ncn(Cc3nc(CCc4ccc(Cl)cc4)no3)c(=O)c21 [AM-0902],block of AITC-evoked Ca2+ elevation,"hTRPA1 [4]; preincubation, 1μM",blocked
same,block of ±PZQ-evoked Ca2+ responses,"hTRPA1 [4]; preincubation, 1μM",blocked
COc1ccc(NC(=O)[C@@H]2C[C@H](C)CC[C@H]2C(C)C)cc1 [WS-12],relaxation of KPSS-contracted vessel strips by TRPM8 agonists,[1],completely relaxed
same,vasorelaxant effect in TRPM8 KO background,[3],persisted
COc1cc(CNC(=O)CCCC/C=C/C(C)C)ccc1O [capsaicin],Ca2+ signal in TRPV1 expressing cells,"TRPV1; capsaicin 1μM, ±PZQ 100μM",evoked Ca^2+ signals
same,Ca2+ response in untransfected HEK293 cells,[2],neither the addition of the TRPV1 agonist capsaicin (1μM) nor addition of ±PZQ evoked a Ca^2+ response
"C=CCN=C=S [AITC, allyl isothiocyanate]",Ca2+ response in hTRPA1 expressing cells,hTRPA1 [4],elevation of cytoplasmic Ca^2+
same,Ca2+ response in untransfected HEK293 cells,[2],without effect
